Measured values as given in patent US20230391772A1, “METHODS AND COMPOSITIONS FOR TARGETED PROTEIN DEGRADATION” (Ranok Therapeutics (Hangzhou) Co. Ltd., priority 2020, published 2023).

Legend:
[1] = biological target: T1, HSP90a protein (Homo sapiens, UniProt P07900); experiment: HSP90α-binding fluorescent polarization (FP) assay, BODIPY-labeled RNK04010 probe; conditions: FP competition with RNK04010 (BODIPY-labeled), 5 nM, 300 min at 25° C.
T1 construct: purchased BPS Bioscience 50298
Procedure: HSP90α-Binding Fluorescent Polarization (FP) Assay
Binding of test compounds to HSP90a protein was measured by fluorescent polarization (FP) using the HSP90a (N-terminal) Assay Kit (BPS Bioscience, #50298), following the manufacturer's instructions, except as noted. Fluorescently labeled HSP90-binding compounds, either the provided FITC-geldanamycin (5 nM final concentration) or RNK04010, a triazolone-based HSP90 binding small molecule labeled with BODIPY through a piperizine-phenyl linker (5 nM final concentration) were employed. A 2.5-fold serial dilution of each test compound ranging from 20 μM to 5.2 nM was assayed for binding to HSP90a. After the final step of adding HSP90a protein to each assay well, plates were mixed by brief shaking, incubated at 25° C. for 120 min for FITC-geldanamycin or 300 min for RNK04010, and fluorescence was measured using a PerkinElmer EnVision Plate Reader.

[2] = test system: MIA PaCa-2 human pancreatic carcinoma; experiment: MIA PaCa-2 CCK-8 proliferation assay; assay type: cell-based; conditions: Homo sapiens, MIA PaCa-2, 72 h, MIA PaCa-2 cells
Procedure: The following cancer cell lines were employed: BT-474 human breast carcinoma (ATCC, #HTB-20); MIA PaCa-2 human pancreatic carcinoma [2 copies KRAS(G12C)](ATCC, #CRL-1420); NCI-H23 human non-small cell lung cancer [1 copy KRAS(G12C)](ATCC, #CRL-5800); NCI-H358 human non-small cell lung cancer [1 copy KRAS(G12C)](ATCC, #CRL-5807); LU65A human lung carcinoma (Pharmaron, Beijing, China). Cell lines were cultured essentially according to ATCC and Pharmaron recommendations.
Cancer Cell Line Proliferation (CCK-8) Assays
3-fold serial dilutions of each test compound were prepared ranging from 20 μM to 1.02 nM.
% Inhibition=100−(D−B)/(S−B)*100%. • S: Absorbance of cells treated with DMSO • D: Absorbance of compound-treated cells • B: Absorbance of medium with DMSO without cells

IC50 [1] | EC50 [2] | SMILES
< 100 nM | 100 to 1000 nM | C=CC(=O)N1CCN(c2nc(OCC3CCN(C(=O)C4CCN(Cc5ccc(-n6c(O)nnc6-c6cc(C(C)C)c(O)cc6O)cc5)CC4)CC3)nc3c2CCN(c2cccc4cccc(Cl)c24)C3)C[C@@H]1CC#N [Compound 179, (S)-2-(1-acryloyl-4-(7-(8-chloronaphthalen-1-yl)-2-((1-(1-(4-(3-(2,4-dihydroxy-5-isopropylphenyl)-5-hydroxy-4H-1,2,4-triazol-4-yl)benzyl)piperidine-4-carbonyl)piperidin-4-yl)methoxy)-5,6,7,8-tetrahydropyrido[3,4-d]pyrimidin-4-yl)piperazin-2-yl)acetonitrile]
< 100 nM | > 1000 nM | C=CC(=O)N1CCN(c2nc(OC[C@@H]3C[C@@H](NC(=O)C4CCN(Cc5ccc(-n6c(C(=O)NCCN(CC)CC)nnc6-c6cc(C(C)C)c(O)cc6O)cc5)CC4)CN3C)nc3c2CCN(c2cccc4cccc(Cl)c24)C3)C[C@@H]1CC#N [Compound 204, N-((3R,5S)-5-(((4-((S)-4-acryloyl-3-(cyanomethyl)piperazin-1-yl)-7-(8-chloronaphthalen-1-yl)-5,6,7,8-tetrahydropyrido[3,4-d]pyrimidin-2-yl)oxy)methyl)-1-methylpyrrolidin-3-yl)-1-(4-(3-((2-(diethylamino)ethyl)carbamoyl)-5-(2,4-dihydroxy-5-isopropylphenyl)-4H-1,2,4-triazol-4-yl)benzyl)piperidine-4-carboxamide]
< 100 nM | > 1000 nM | C=CC(=O)N1CCN(c2nc(OC[C@@H]3CCN(CCCOCCC(=O)NCc4ccc(-n5c(O)nnc5-c5cc(C(C)C)c(O)cc5O)cc4)C3)nc3c2CCN(c2cccc4cccc(Cl)c24)C3)C[C@@H]1CC#N [Compound 182, 3-(3-((R)-3-(((4-((S)-4-acryloyl-3-(cyanomethyl)piperazin-1-yl)-7-(8-chloronaphthalen-1-yl)-5,6,7,8-tetrahydropyrido[3,4-d]pyrimidin-2-yl)oxy)methyl)pyrrolidin-1-yl)propoxy)-N-(4-(3-(2,4-dihydroxy-5-isopropylphenyl)-5-hydroxy-4H-1,2,4-triazol-4-yl)benzyl)propanamide]
> 1000 nM | > 1000 nM | C=CC(=O)N1CCN(c2nc(OC[C@@H]3CCN(C(=O)c4ccc(Nc5cc(-n6nc(C(F)(F)F)c7c6CC(C)(C)CC7=O)ccc5C(N)=O)cc4)C3)nc3c2CCN(c2cccc4cccc(Cl)c24)C3)C[C@@H]1CC#N [Compound 181, 2-((4-((R)-3-(((4-((S)-4-acryloyl-3-(cyanomethyl)piperazin-1-yl)-7-(8-chloronaphthalen-1-yl)-5,6,7,8-tetrahydropyrido[3,4-d]pyrimidin-2-yl)oxy)methyl)pyrrolidine-1-carbonyl)phenyl)amino)-4-(6,6-dimethyl-4-oxo-3-(trifluoromethyl)-4,5,6,7-tetrahydro-1H-indazol-1-yl)benzamide]
– | 100 to 1000 nM | C=CC(=O)N1CCN(c2nc(OCC3(CN4CCN(Cc5ccc(-n6c(O)nnc6-c6cc(C(C)C)c(O)cc6O)cc5)CC4)CC3)nc3c2CCN(c2cccc(C)c2C)C3)C[C@@H]1CC#N [Compound 292, 2-[(2S)-4-{2-[(1-{[4-({4-[3-(2,4-dihydroxy-5-isopropylphenyl)-5-hydroxy-1,2,4-triazol-4-yl]phenyl}methyl)piperazin-1-yl]methyl}cyclopropyl)methoxy]-7-(2,3-dimethylphenyl)-5H,6H,8H-pyrido[3,4-d]pyrimidin-4-yl}-1-(prop-2-enoyl)piperazin-2-yl]acetonitrile]
> 1000 nM | – | C=CC(=O)N1CCN(c2nc(OC[C@@H]3CCN(C(=O)c4ccc5c(c4)CN(C(=O)c4cc(C(C)C)c(O)cc4O)C5)C3)nc3c2CCN(c2cccc4cccc(Cl)c24)C3)C[C@@H]1CC#N [Compound 175, 2-((S)-1-acryloyl-4-(7-(8-chloronaphthalen-1-yl)-2-(((R)-1-(2-(2,4-dihydroxy-5-isopropylbenzoyl)isoindoline-5-carbonyl)pyrrolidin-3-yl)methoxy)-5,6,7,8-tetrahydropyrido[3,4-d]pyrimidin-4-yl)piperazin-2-yl)acetonitrile]
> 1000 nM | – | C=CC(=O)N1CCN(c2nc(OC[C@@H]3CCN(C(=O)c4ccc5c(c4)CN(C(=O)c4cc(CC)c(O)cc4O)C5)C3)nc3c2CCN(c2cccc4cccc(Cl)c24)C3)C[C@@H]1CC#N [Compound 176, 2-((S)-1-acryloyl-4-(7-(8-chloronaphthalen-1-yl)-2-(((R)-1-(2-(5-ethyl-2,4-dihydroxybenzoyl)isoindoline-5-carbonyl)pyrrolidin-3-yl)methoxy)-5,6,7,8-tetrahydropyrido[3,4-d]pyrimidin-4-yl)piperazin-2-yl)acetonitrile]

Second part, the compound before the results:

SMILES | IC50 [1] | EC50 [2]
C=CC(=O)N1CCN(c2nc(OC[C@H]3CCN(C(=O)C4CCN(Cc5ccc(-n6c(O)nnc6-c6cc(C(C)C)c(O)cc6O)cc5)CC4)C3)nc3c2CCN(c2cccc4cccc(Cl)c24)C3)C[C@@H]1CC#N [Compound 184, 2-((S)-1-acryloyl-4-(7-(8-chloronaphthalen-1-yl)-2-(((S)-1-(1-(4-(3-(2,4-dihydroxy-5-isopropylphenyl)-5-hydroxy-4H-1,2,4-triazol-4-yl)benzyl)piperidine-4-carbonyl)pyrrolidin-3-yl)methoxy)-5,6,7,8-tetrahydropyrido[3,4-d]pyrimidin-4-yl)piperazin-2-yl)acetonitrile] | 100 to 1000 nM | 100 to 1000 nM
C=CC(=O)N1CCN(c2nc(OC[C@@H]3CCN(C(=O)COc4ccc(Nc5cc(-n6nc(C(F)(F)F)c7c6CC(C)(C)CC7=O)ccc5C(N)=O)cc4)C3)nc3c2CCN(c2cccc4cccc(Cl)c24)C3)C[C@@H]1CC#N [Compound 178, 2-((4-(2-((R)-3-(((4-((S)-4-acryloyl-3-(cyanomethyl)piperazin-1-yl)-7-(8-chloronaphthalen-1-yl)-5,6,7,8-tetrahydropyrido[3,4-d]pyrimidin-2-yl)oxy)methyl)pyrrolidin-1-yl)-2-oxoethoxy)phenyl)amino)-4-(6,6-dimethyl-4-oxo-3-(trifluoromethyl)-4,5,6,7-tetrahydro-1H-indazol-1-yl)benzamide] | > 1000 nM | > 1000 nM
C=CC(=O)N1CCN(c2nc(OC[C@@H]3CC[C@H](C(=O)N4CCN(C(=O)C5CCN(Cc6ccc(-n7c(O)nnc7-c7cc(C)c(O)cc7O)cc6)CC5)CC4)N3C)nc3c2CCN(c2cccc4cccc(Cl)c24)C3)C[C@@H]1CC#N [Compound 306, 2-[(2S)-4-[7-(8-chloronaphthalen-1-yl)-2-{[(2S,5R)-5-{4-[1-({4-[3-(2,4-dihydroxy-5-methylphenyl)-5-hydroxy-1,2,4-triazol-4-yl]phenyl}methyl)piperidine-4-carbonyl]piperazine-1-carbonyl}-1-methylpyrrolidin-2-yl]methoxy}-5H,6H,8H-pyrido [3,4-d]pyrimidin-4-yl]-1-(prop-2-enoyl)piperazin-2-yl]acetonitrile] | < 100 nM | > 1000 nM
C=CC(=O)N1CCN(c2nc(NCCC(=O)NCc3ccc(CN4CCC(Cc5ccc(-n6c(C(=O)NC(C)C)nnc6-c6cc(C(C)C)c(O)cc6O)cc5)CC4)cc3)nc3c2CCN(c2cc(O)cc4ccccc24)C3)CC1 [Compound 126, 4-(4-((1-(4-((3-((4-(4-acryloylpiperazin-1-yl)-7-(3-hydroxynaphthalen-1-yl)-5,6,7,8-tetrahydropyrido[3,4-d]pyrimidin-2-yl)amino)propanamido)methyl)benzyl)piperidin-4-yl)methyl)phenyl)-5-(2,4-dihydroxy-5-isopropylphenyl)-N-isopropyl-4H-1,2,4-triazole-3-carboxamide, trifluoroacetic acid] | 100 to 1000 nM | –
CC(C)c1cc(-c2nnc(O)n2-c2ccc(CN3CCC(C(=O)N4CC[C@@H](COc5nc6c(c(N7CCN(C(=O)C(F)(F)F)[C@@H](CC#N)C7)n5)CCN(c5cccc7cccc(Cl)c57)C6)C4)CC3)cc2)c(O)cc1O [Compound 177, 2-((S)-4-(7-(8-chloronaphthalen-1-yl)-2-(((R)-1-(1-(4-(3-(2,4-dihydroxy-5-isopropylphenyl)-5-hydroxy-4H-1,2,4-triazol-4-yl)benzyl)piperidine-4-carbonyl)pyrrolidin-3-yl)methoxy)-5,6,7,8-tetrahydropyrido[3,4-d]pyrimidin-4-yl)-1-(2,2,2-trifluoroacetyl)piperazin-2-yl)acetonitrile] | 100 to 1000 nM | –
C=CC(=O)N1CCN(c2nc(OCC3(CN4CCN(Cc5ccc(-n6c(C(=O)NCC)nnc6-c6cc(C(C)C)c(O)cc6O)cc5)CC4)CC3)nc3c2CCN(c2cccc(C)c2C)C3)C[C@@H]1CC#N [Compound 291, 4-(4-{[4-({1-[({4-[(3S)-3-(cyanomethyl)-4-(prop-2-enoyl)piperazin-1-yl]-7-(2,3-dimethylphenyl)-5H,6H,8H-pyrido[3,4-d]pyrimidin-2-yl}oxy)methyl]cyclopropyl}-methyl)piperazin-1-yl]methyl}phenyl)-5-(2,4-dihydroxy-5-isopropylphenyl)-N-et-hyl-1,2,4-triazole-3-carboxamide] | – | < 100 nM
